Assay results reported in ChEMBL document CHEMBL3885881, “DrugMatrix”.

Species: Rattus norvegicus
Test: DrugMatrix - Regimen: Daily Repeat
Assay type: toxicity, organism-based, Sprague-Dawley
Parameters: regimen Daily Repeat, gender Male, age 6-8 weeks
Conditions: in vivo, po, route oral GAVAGE, vehicle .5 % CMC; for ABSOLUTE BASOPHIL / ABSOLUTE EOSINOPHIL / ABSOLUTE LYMPHOCYTE / ABSOLUTE MONOCYTE / ABSOLUTE SEGMENTED NEUTROPHIL / BASOPHIL / EOSINOPHIL / ERYTHROCYTE COUNT / HEMATOCRIT / HEMOGLOBIN / LEUKOCYTE COUNT / LYMPHOCYTE / MEAN CORPUSCULAR HEMOGLOBIN / MEAN CORPUSCULAR HEMOGLOBIN CONCENTRATION / MEAN CORPUSCULAR VOLUME / MONOCYTE / NEUTROPHIL / NUCLEATED RED BLOOD CELLS / PLATELET COUNT: tissue Blood; for ALANINE AMINOTRANSFERASE / ALBUMIN / ALKALINE PHOSPHATASE / ASPARTATE AMINOTRANSFERASE / BLOOD UREA NITROGEN / CARBON DIOXIDE / CHLORIDE / CHOLESTEROL / CREATINE PHOSPHOKINASE / CREATININE / GLUCOSE / LACTATE DEHYDROGENASE / LIPASE / PHOSPHORUS / POTASSIUM / SODIUM / TOTAL BILIRUBIN / TOTAL PROTEIN / URIC ACID: tissue Plasma
[1] = 10 mg/kg, 72 h, dose level Low, time 3 day
[2] = 10 mg/kg, 120 h, dose level Low, time 5 day
[3] = 1500 mg/kg, 72 h, dose level High, time 3 day
[4] = 1500 mg/kg, 120 h, dose level High, time 5 day

## Cc1ccc(S(=O)(=O)NC(=O)NN2CC3CCCC3C2)cc1 (configuration not stated) [GLICLAZIDE]
[1]
  ABSOLUTE BASOPHIL: 0 CELLS/uL
  ABSOLUTE EOSINOPHIL: 0 CELLS/uL
  ABSOLUTE LYMPHOCYTE: 14055.67 CELLS/uL
  ABSOLUTE MONOCYTE: 174.33 CELLS/uL
  ABSOLUTE SEGMENTED NEUTROPHIL: 3203.33 CELLS/uL
  BASOPHIL: 0%
  EOSINOPHIL: 0%
  ERYTHROCYTE COUNT: 5.24 x10E6/uL
  HEMATOCRIT: 35.87%
  HEMOGLOBIN: 13.1 G/DL
  LEUKOCYTE COUNT: 17.43 x10E3/uL
  LYMPHOCYTE: 80.33%
  MEAN CORPUSCULAR HEMOGLOBIN: 25.37 pg
  MEAN CORPUSCULAR HEMOGLOBIN CONCENTRATION: 36.67 G/DL
  MEAN CORPUSCULAR VOLUME: 70.43 fL
  MONOCYTE: 1%
  NEUTROPHIL: 18.67%
  NUCLEATED RED BLOOD CELLS: 7 /100WBC
  PLATELET COUNT: 1164.33 x10E3/uL
  ALANINE AMINOTRANSFERASE: 49.67 u/L
  ALBUMIN: 4.1 G/DL
  ALKALINE PHOSPHATASE: 346.33 u/L
  ASPARTATE AMINOTRANSFERASE: 96.67 u/L
  BLOOD UREA NITROGEN: 16 mg/dL
  CARBON DIOXIDE: 25 mmol/L
  CHLORIDE: 100.33 MEQ/L
  CHOLESTEROL: 66.67 mg/dL
  CREATINE PHOSPHOKINASE: 653 u/L
  CREATININE: 0.19 mg/dL
  GLUCOSE: 179.33 mg/dL
  LACTATE DEHYDROGENASE: 157.33 u/L
  LIPASE: 10 u/L
  PHOSPHORUS: 13.27 mg/dL
  POTASSIUM: 6.4 MEQ/L
  SODIUM: 142.3 MEQ/L
  TOTAL BILIRUBIN: 0.27 mg/dL
  TOTAL PROTEIN: 5.77 G/DL
  URIC ACID: 2.23 mg/dL
[2]
  ABSOLUTE BASOPHIL: 0 CELLS/uL
  ABSOLUTE EOSINOPHIL: 0 CELLS/uL
  ABSOLUTE LYMPHOCYTE: 12400.33 CELLS/uL
  ABSOLUTE MONOCYTE: 0 CELLS/uL
  ABSOLUTE SEGMENTED NEUTROPHIL: 2133 CELLS/uL
  BASOPHIL: 0%
  EOSINOPHIL: 0%
  ERYTHROCYTE COUNT: 5.84 x10E6/uL
  HEMATOCRIT: 35.33%
  HEMOGLOBIN: 14.07 G/DL
  LEUKOCYTE COUNT: 14.53 x10E3/uL
  LYMPHOCYTE: 86%
  MEAN CORPUSCULAR HEMOGLOBIN: 24.13 pg
  MEAN CORPUSCULAR HEMOGLOBIN CONCENTRATION: 39.8 G/DL
  MEAN CORPUSCULAR VOLUME: 60.6 fL
  MONOCYTE: 0%
  NEUTROPHIL: 14%
  NUCLEATED RED BLOOD CELLS: 0 /100WBC
  PLATELET COUNT: 1074.33 x10E3/uL
  ALANINE AMINOTRANSFERASE: 49 u/L
  ALBUMIN: 4.23 G/DL
  ALKALINE PHOSPHATASE: 441 u/L
  ASPARTATE AMINOTRANSFERASE: 113.67 u/L
  BLOOD UREA NITROGEN: 15.33 mg/dL
  CARBON DIOXIDE: 25 mmol/L
  CHLORIDE: 101.33 MEQ/L
  CHOLESTEROL: 63.33 mg/dL
  CREATINE PHOSPHOKINASE: 738.33 u/L
  CREATININE: 0.19 mg/dL
  GLUCOSE: 153.67 mg/dL
  LACTATE DEHYDROGENASE: 958 u/L
  LIPASE: 9 u/L
  PHOSPHORUS: 11.2 mg/dL
  POTASSIUM: 6.16 MEQ/L
  SODIUM: 141.57 MEQ/L
  TOTAL BILIRUBIN: 0.2 mg/dL
  TOTAL PROTEIN: 5.97 G/DL
  URIC ACID: 1.43 mg/dL
[3]
  ABSOLUTE BASOPHIL: 0 CELLS/uL
  ABSOLUTE EOSINOPHIL: 66 CELLS/uL
  ABSOLUTE LYMPHOCYTE: 14884.33 CELLS/uL
  ABSOLUTE MONOCYTE: 365.67 CELLS/uL
  ABSOLUTE SEGMENTED NEUTROPHIL: 2117.33 CELLS/uL
  BASOPHIL: 0%
  EOSINOPHIL: 0.33%
  ERYTHROCYTE COUNT: 6.45 x10E6/uL
  HEMATOCRIT: 39.57%
  HEMOGLOBIN: 15.77 G/DL
  LEUKOCYTE COUNT: 17.43 x10E3/uL
  LYMPHOCYTE: 85.33%
  MEAN CORPUSCULAR HEMOGLOBIN: 24.4 pg
  MEAN CORPUSCULAR HEMOGLOBIN CONCENTRATION: 39.83 G/DL
  MEAN CORPUSCULAR VOLUME: 61.27 fL
  MONOCYTE: 2%
  NEUTROPHIL: 12.33%
  NUCLEATED RED BLOOD CELLS: 0 /100WBC
  PLATELET COUNT: 1204.33 x10E3/uL
  ALANINE AMINOTRANSFERASE: 29 u/L
  ALBUMIN: 4.03 G/DL
  ALKALINE PHOSPHATASE: 337.33 u/L
  ASPARTATE AMINOTRANSFERASE: 85.67 u/L
  BLOOD UREA NITROGEN: 17.33 mg/dL
  CARBON DIOXIDE: 26.33 mmol/L
  CHLORIDE: 100.67 MEQ/L
  CHOLESTEROL: 39.33 mg/dL
  CREATINE PHOSPHOKINASE: 319 u/L
  CREATININE: 0.14 mg/dL
  GLUCOSE: 104.67 mg/dL
  LACTATE DEHYDROGENASE: 118.33 u/L
  LIPASE: 8.67 u/L
  PHOSPHORUS: 11.03 mg/dL
  POTASSIUM: 6.27 MEQ/L
  SODIUM: 141.67 MEQ/L
  TOTAL BILIRUBIN: 0.13 mg/dL
  TOTAL PROTEIN: 5.43 G/DL
  URIC ACID: 2.57 mg/dL
[4]
  ABSOLUTE BASOPHIL: 0 CELLS/uL
  ABSOLUTE EOSINOPHIL: 0 CELLS/uL
  ABSOLUTE LYMPHOCYTE: 11101.33 CELLS/uL
  ABSOLUTE MONOCYTE: 80.33 CELLS/uL
  ABSOLUTE SEGMENTED NEUTROPHIL: 1151.67 CELLS/uL
  BASOPHIL: 0%
  EOSINOPHIL: 0%
  ERYTHROCYTE COUNT: 6.29 x10E6/uL
  HEMATOCRIT: 37%
  HEMOGLOBIN: 14.7 G/DL
  LEUKOCYTE COUNT: 12.33 x10E3/uL
  LYMPHOCYTE: 90%
  MEAN CORPUSCULAR HEMOGLOBIN: 23.4 pg
  MEAN CORPUSCULAR HEMOGLOBIN CONCENTRATION: 39.8 G/DL
  MEAN CORPUSCULAR VOLUME: 58.83 fL
  MONOCYTE: 0.67%
  NEUTROPHIL: 9.33%
  NUCLEATED RED BLOOD CELLS: 0 /100WBC
  PLATELET COUNT: 1131.67 x10E3/uL
  ALANINE AMINOTRANSFERASE: 46 u/L
  ALBUMIN: 4.17 G/DL
  ALKALINE PHOSPHATASE: 318 u/L
  ASPARTATE AMINOTRANSFERASE: 93 u/L
  BLOOD UREA NITROGEN: 21.33 mg/dL
  CARBON DIOXIDE: 23.33 mmol/L
  CHLORIDE: 103.67 MEQ/L
  CHOLESTEROL: 44.67 mg/dL
  CREATINE PHOSPHOKINASE: 248.33 u/L
  CREATININE: 0.18 mg/dL
  GLUCOSE: 101.67 mg/dL
  LACTATE DEHYDROGENASE: 168.33 u/L
  LIPASE: 10 u/L
  PHOSPHORUS: 10.43 mg/dL
  POTASSIUM: 6.21 MEQ/L
  SODIUM: 144.47 MEQ/L
  TOTAL BILIRUBIN: 0.1 mg/dL
  TOTAL PROTEIN: 5.7 G/DL
  URIC ACID: 1.7 mg/dL
